Structures can show the parent of a compound that is named as a salt.
What was measured:
Human H3 = Human H3 (Homo sapiens (Human), UniProt Q9Y5N1); assay: Human H3 binding assay (SPA, [3H]-R-alpha-Methylhistamine); details: 3 nM [3H]-R-alpha-Methylhistamine
Experimental: c) Human H3 Binding Assay
The Scintillation Proximity Binding Assay (SPA) assay was performed in a final volume of 50 μL per well in a 384-well polystyrene plate.
The final concentration of the radioligand was 3 nM. • 20 μL of a beads (PVT-WGA type A) and membranes mixed suspension in assay buffer, in order to get a final concentration of 10 μg/well of membranes and 200 μg/well of beads. As an example, 1471 μL membranes (Conc.: 5.1 mg/mL) and 1500 μL of bead suspension (Conc.: 100 mg/mL) are diluted to a final volume of 15 mL of assay buffer.
The plates were sealed and shaken at room temperature, then allowed to stand at room temperature for at least 1 hour. The plates were counted using a Perkin Elmer TopCount reader, each well being counted for 1 minute.

mouse GPR4 = mouse GPR4 (Mus musculus (Mouse), UniProt Q8BUD0); assay: Mouse GPR4 cAMP assay; format: cell-based
Chain of mouse GPR4 (Q8BUD0 whole entry): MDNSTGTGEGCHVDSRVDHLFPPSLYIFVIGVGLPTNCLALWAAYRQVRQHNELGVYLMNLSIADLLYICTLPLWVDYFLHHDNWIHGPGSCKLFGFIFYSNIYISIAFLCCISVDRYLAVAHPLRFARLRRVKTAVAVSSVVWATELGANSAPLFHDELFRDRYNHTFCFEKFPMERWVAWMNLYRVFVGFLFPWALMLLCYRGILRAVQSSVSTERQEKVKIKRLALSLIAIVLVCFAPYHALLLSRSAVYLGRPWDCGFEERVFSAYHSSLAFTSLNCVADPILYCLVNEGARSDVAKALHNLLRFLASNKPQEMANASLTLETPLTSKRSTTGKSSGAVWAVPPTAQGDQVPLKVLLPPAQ
Experimental: (§1) HeLa cells stably expressing human GPR4 were established by transfecting the cells with a construct containing the human GPR4 coding sequence. The cells were grown in Dulbecco's Modified Eagle Medium (DMEM)/HAM's tissue culture medium F12 (HAM's F12) supplemented with 10% fetal calf serum (FCS), 100 u/ml penicillin, 100 μg/ml streptomycin and 400 μg/ml G418 and 10 mM Hepes pH 8.0. pH-induced formation of cAMP was determined using the homogeneous time resolved fluorescence (HTRF) technology as provided by CisBio Inc. The cells were seeded in 384-well plates and cultured for 24 hours at 37° C., 5% CO2 before performing the assay. Medium was removed and 10 μl buffer A (Hepes buffered saline (HBS), 10 mM Hepes, pH 8, 2 mM 3-Isobutyl-1-methylxanthin (IBMX)) was added. For compound testing, buffer A with 2× concentrated compounds was used. Cells were incubated for 15 min at room temperature. 10 μl buffer B (HBS, 30 mM Hepes, specific pH) was added to reach the appropriate final pH for stimulation (see below) and incubation was continued for 15 min at room temperature. […] HBS: 130 mM NaCl, 0.9 mM NaH2 PO4, 5.4 mM KCl, 0.8 mM MgSO4, CaCl2 1.8 mM, 25 mM glucose, 10-30 mM Hepes. Adjustment of HBS buffers:
(§2) Compounds were diluted from fresh stock solutions at 10 mM in DMSO to 2 mM and then used for serial dilutions in DMSO.
(§3) In a similar manner, assays for the mouse (m) and rat (r) GPR4 receptors have been established.

rat GPR4 = rat GPR4 (Rattus norvegicus (Rat), UniProt Q4KLH9); assay: Rat GPR4 cAMP assay; format: cell-based; details: read-out: r cAMP IC50
Chain of rat GPR4 (Q4KLH9 whole entry): as the sequence (Q8BUD0 whole entry) above, with G8W, H51R, S339T counted along it
Experimental: as §1, §2, §3

human GPR4 [1] = target: T1, human GPR4 (Homo sapiens (Human), UniProt P46093); assay: Cell-based assay for human GPR4 activity (pH-induced cAMP formation, HTRF, HeLa cells); details: HeLa cells stably expressing human GPR4, pH-induced cAMP
T1 sequence (P46093 whole entry): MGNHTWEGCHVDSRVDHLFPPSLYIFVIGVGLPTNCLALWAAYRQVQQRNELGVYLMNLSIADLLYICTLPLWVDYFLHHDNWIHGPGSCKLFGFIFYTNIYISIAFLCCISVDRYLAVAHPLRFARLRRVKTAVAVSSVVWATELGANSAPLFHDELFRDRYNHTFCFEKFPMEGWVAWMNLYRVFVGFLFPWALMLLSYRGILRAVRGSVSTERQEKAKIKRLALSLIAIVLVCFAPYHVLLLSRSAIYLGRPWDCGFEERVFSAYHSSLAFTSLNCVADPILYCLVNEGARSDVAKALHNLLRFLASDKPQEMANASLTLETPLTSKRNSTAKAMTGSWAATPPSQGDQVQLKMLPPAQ
Experimental: b) Cell-Based Assay for Human GPR4 Activity
as §1, §2

human GPR4 [2] = target: T1, human GPR4; assay: Human GPR4 binding assay ([3H]4 radioligand, membranes of 300.19 cells expressing human GPR4)
Experimental: a) Human GPR4 Binding Assay
(§4) Cells were grown in T175 flasks to a density of about 1×10^6 cells/mL in growth medium. The cells were harvested by centrifugation (3000 rpm for 30 minutes at 4° C.) and the pellet resuspended in ice cold buffer A (20 mM HEPES pH 7.8, 10 mM EDTA, 100 mM NaCl, 1 tab/40 mL protease inhibitor complete). […] The homogenate was centrifuged at 18000 rpm for 50 min at 4° C. and the membrane protein pellet resuspended in cold buffer A using the Polytron (2×20 seconds). The protein concentration is determined using the Bio Rad Protein Assay and human IgG as standard. The volume of the membrane protein suspension is adjusted to a final concentration of about 2 mg protein/mL. The suspension is then once again homogenized (Polytron) on ice at 25000 rpm for 20 seconds before being aliquoted and stored at −80° C.
(§5) Radio Ligand Binding Assay: Serial dilutions of compounds (stock in 10 mM DMSO) are prepared by first diluting the compounds in DMSO followed by a 1:50 dilution into assay buffer (10 mM HEPES, pH 8.0, 100 mM NaCl, 5 mM MgCl2, 1 mM CaCl2, 0.5% fatty acid-free BSA, 0.05% Tween-20). […] The desired amount of membranes (20 μg/well) is diluted with assay buffer. […] 100 μL of the membrane-suspension is added and the plate stirred for 60 minutes. […] The filter plate is washed 5 times with ice-cold wash buffer, dried and sealed at the bottom. Then 20 μL of Microscint 40 is added into each well and the top of the plate is sealed. Finally the plate is counted for 2 min/well in a TopCount NXT instrument (Packard Instruments). The data are analyzed using the GraphPad Prism™ software.

human GPR4 [3] = target: T1, human GPR4; assay: Human GPR4 binding assay with additional human serum albumin (4% HSA); details: binding assay with 4% HSA
Experimental: as §4, §5
In a similar manner, a binding assay with additional human serum albumin (4% HSA) has been established.

CFA-induced hyperalgesia = assay: Established rat hyperalgesia model (CFA); format: in vivo; details: gavage
Experimental: f) Established Rat Hyperalgesia Model
Naïve withdrawal thresholds of both hind paws were determined by using an increasing pressure stimulus placed onto the dorsal surface of each paw using an analgesymeter. Delayed inflammatory pain was then induced by intra-plantar injection of 25 μl of complete Freund's adjuvant (CFA) into one hindpaw with the contralateral paw acting as the control. […] One hour later, paw withdrawal thresholds were re-measured on both the ipsilateral (CFA-injected) and contralateral (uninjected) paw; measurements were repeated at 3 hrs and 6 hrs post dosing. The reversal of hyperalgesia was calculated using the following formula: Reversal (%)=100×(postdose ipsilateral threshold−predose ipsilateral threshold) (naïve ipsilateral threshold−predose ipsilateral threshold).

[4] = radioligand [3H]4 (example 39), membranes of 300.19 cells expressing human GPR4

Chain of Human H3 (Q9Y5N1 whole entry): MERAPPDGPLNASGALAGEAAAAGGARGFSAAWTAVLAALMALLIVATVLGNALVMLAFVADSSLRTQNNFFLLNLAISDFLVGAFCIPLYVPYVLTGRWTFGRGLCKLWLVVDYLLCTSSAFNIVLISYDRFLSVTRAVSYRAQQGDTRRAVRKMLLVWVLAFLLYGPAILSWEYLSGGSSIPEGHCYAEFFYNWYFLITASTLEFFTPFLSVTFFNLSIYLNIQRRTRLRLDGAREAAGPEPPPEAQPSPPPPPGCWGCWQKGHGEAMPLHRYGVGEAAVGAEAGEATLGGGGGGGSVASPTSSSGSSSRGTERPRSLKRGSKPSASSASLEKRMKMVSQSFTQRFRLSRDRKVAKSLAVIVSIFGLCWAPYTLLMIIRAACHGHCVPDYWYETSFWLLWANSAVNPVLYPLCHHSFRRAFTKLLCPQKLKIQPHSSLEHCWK

IC50 (Human H3) [nM] | IC50 (mouse GPR4) [nM] | IC50 (rat GPR4) [nM] | IC50 (human GPR4 [1]) [nM] | IC50 (human GPR4 [2]; [4]) [nM] | Structure (SMILES) | other results
> 30000 | 265 | 931 | 37 |  | CCc1nn2c(C)cc(C)nc2c1Cc1ccc(/C=C/C2(O)CCNCC2)cc1 [Example 1, 4-{(E)-2-[4-(2-Ethyl-5,7-dimethyl-pyrazolo[1,5-a]pyrimidin-3-ylmethyl)-phenyl]-vinyl}-piperidin-4-ol] | IC50 (human GPR4 [2]): 45 nM; IC50 (human GPR4 [3]): 25 nM
> 10000 | 632 | 989 | 55 |  | CCc1nn2c(C)cc(C)nc2c1Cc1ccc(/C=C/CC2(O)CNC2)cc1 [Example 2, 3-{(E)-3-[4-(2-Ethyl-5,7-dimethyl-pyrazolo[1,5-a]pyrimidin-3-ylmethyl)-phenyl]-allyl}-azetidin-3-ol] | IC50 (human GPR4 [2]): 34 nM; IC50 (human GPR4 [3]): 52 nM
 | 128 | 491 | 19 | 24 | CCc1nn2c(C)cc(C)nc2c1Cc1ccc(/C=C/CC2(O)CCN(C[C@@H](O)CO)CC2)cc1 [Example 6, (R)-3-(4-{(E)-3-[4-(2-Ethyl-5,7-dimethyl-pyrazolo[1,5-a]pyrimidin-3-ylmethyl)-phenyl]-allyl}-4-hydroxy-piperidin-1-yl)-propane-1,2-diol] | 
> 30000 | 499 | 2790 | 46 | 38 | CCc1nn2c(C)cc(C)nc2c1Cc1ccc(/C=C/CN2CCN(C(=O)CN)CC2)cc1 [Example 11, 2-Amino-1-(4-{(E)-3-[4-(2-ethyl-5,7-dimethyl-pyrazolo[1,5-a]pyrimidin-3-ylmethyl)-phenyl]-allyl}-piperazin-1-yl)-ethanone dihydrochloride] | 
> 30000 | 233 | 181 | 27 | 33 | CCc1nn2c(C)cc(C)nc2c1Cc1ccc(/C=C/CN2CCC(c3nnnn3C)CC2)cc1 [Example 12, 2-Ethyl-5,7-dimethyl-3-(4-{(E)-3-[4-(1-methyl-1H-tetrazol-5-yl)-piperidin-1-yl]-propenyl}-benzyl)-pyrazolo[1,5-a]pyrimidine hydrochloride] | 
> 30000 | 366 | 1500 | 79 |  | CCc1nn2c(C)cc(C)nc2c1Cc1ccc(C(=O)NCC2CCNCC2)cc1 [Example 20, 4-(2-Ethyl-5,7-dimethyl-pyrazolo[1,5-a]pyrimidin-3-ylmethyl)-N-piperidin-4-ylmethyl-benzamide] | 
> 30000 | 90 | 202 |  | 19 | CCc1nn2c(C)cc(C)nc2c1Cc1ccc(OCC2CCN(C(=O)[C@H]3NCC[C@H]3O)CC2)cc1 [Example 22, {4-[4-(2-Ethyl-5,7-dimethyl-pyrazolo[1,5-a]pyrimidin-3-ylmethyl)-phenoxymethyl]-piperidin-1-yl}-((2S,3R)-3-hydroxy-pyrrolidin-2-yl)-methanone] | IC50 (human GPR4 [3]): 12 nM
> 30000 | 365 | 792 | 70 |  | CCc1nn2c(C)cc(C)nc2c1Cc1ccc(OC[C@H]2CC[C@@H](NC(=O)[C@H]3NCC[C@H]3O)CC2)cc1 [Example 24, (2S,3R)-3-Hydroxy-pyrrolidine-2-carboxylic acid {4-[4-(2-ethyl-5,7-dimethyl-pyrazolo[1,5-a]pyrimidin-3-ylmethyl)-phenoxymethyl]-cyclohexyl}-amide] | IC50 (human GPR4 [3]): 63 nM
> 30000 | 384 | 497 | 29 | 26 | CCc1nn2c(C)cc(C)nc2c1Cc1ccc(-n2cc(CN3CCC(N)CC3)cn2)cc1 [Example 30, 1-{1-[4-(2-Ethyl-5,7-dimethyl-pyrazolo[1,5-a]pyrimidin-3-ylmethyl)-phenyl]-1H-pyrazol-4-ylmethyl}-piperidin-4-ylamine] | 
> 30000 | 255 | 1330 | 61 |  | CCc1nn2c(C)cc(C)nc2c1Cc1ccc(-n2cc(CN3CCN[C@@H](CO)C3)cn2)cc1 [Example 32, ((R)-4-{1-[4-(2-Ethyl-5,7-dimethyl-pyrazolo[1,5-a]pyrimidin-3-ylmethyl)-phenyl]-1H-pyrazol-4-ylmethyl}-piperazin-2-yl)-methanol] | 
> 10000 | 872 | 616 | 31 | 38 | CCc1nn2c(C)cc(C)nc2c1Cc1ccc(-n2cc(CN3CCNCC3)nn2)cc1 [Example 33, 2-Ethyl-5,7-dimethyl-3-[4-(4-piperazin-1-ylmethyl-[1,2,3]triazol-1-yl)-benzyl]-pyrazolo[1,5-a]pyrimidine] | 
 |  |  | 40 |  | CCc1nn2c(C)cc(C)nc2c1Cc1ccc(-c2nnc(C3CCN(C(=O)CNC)CC3)o2)cc1 [Example 37, 1-(4-{5-[4-(2-Ethyl-5,7-dimethyl-pyrazolo[1,5-a]pyrimidin-3-ylmethyl)-phenyl]-[1,3,4]oxadiazol-2-yl}-piperidin-1-yl)-2-methylamino-ethanone] | 
 |  |  |  |  | CCc1nc2c(C)cc(C)nc2n1Cc1ccc(/C=C/CN2CCN(C(C)C)CC2)cc1 [Example 40, 2-Ethyl-3-{4-[(E)-3-(4-isopropyl-piperazin-1-yl)-propenyl]-benzyl}-5,7-dimethyl-3H-imidazo[4,5-b]pyridine, reference compound] | % reversal of hyperalgesia (CFA-induced hyperalgesia; 3 mg/kg, 1 h): 23%; % reversal of hyperalgesia (CFA-induced hyperalgesia; 3 mg/kg, 3 h): 11%; % reversal of hyperalgesia (CFA-induced hyperalgesia; 3 mg/kg, 6 h): 0%; % reversal of hyperalgesia (CFA-induced hyperalgesia; 10 mg/kg, 1 h): 48%; % reversal of hyperalgesia (CFA-induced hyperalgesia; 10 mg/kg, 3 h): 40%; % reversal of hyperalgesia (CFA-induced hyperalgesia; 10 mg/kg, 6 h): 0%; % reversal of hyperalgesia (CFA-induced hyperalgesia; 30 mg/kg, 1 h): 55%; % reversal of hyperalgesia (CFA-induced hyperalgesia; 30 mg/kg, 3 h): 45%; % reversal of hyperalgesia (CFA-induced hyperalgesia; 30 mg/kg, 6 h): 8%
 |  |  |  |  | O=C(O)Cc1ccccc1Nc1c(Cl)cccc1Cl [diclofenac, reference compound] | % reversal of hyperalgesia (CFA-induced hyperalgesia; 30 mg/kg, 1 h): 58%; % reversal of hyperalgesia (CFA-induced hyperalgesia; 30 mg/kg, 3 h): 60%; % reversal of hyperalgesia (CFA-induced hyperalgesia; 30 mg/kg, 6 h): 30%

Structure (SMILES) | IC50 (Human H3) [nM] | IC50 (mouse GPR4) [nM] | IC50 (rat GPR4) [nM] | IC50 (human GPR4 [1]) [nM] | IC50 (human GPR4 [2]; [4]) [nM] | other results
CCc1nn2c(C)cc(C)nc2c1Cc1ccc(OCC2CCNCC2)cc1 [Example 21, 2-Ethyl-5,7-dimethyl-3-[4-(piperidin-4-ylmethoxy)-benzyl]-pyrazolo[1,5-a]pyrimidine hydrochloride] | 25000 | 96 | 489 | 12 |  | 
